Measured values published in patent US4973597A, “Anticonvulsant agents” (Eli Lilly and Company, priority 1989, dated 1990).

Legend:
[1] = system: tonic extensor seizures elicited by maximal electroshock; test: electroshock induced convulsion inhibition assay (E.S.); type: in vivo, Cox standard strain albino male mice; settings: mice; for ED50: Mus musculus, oral dose (gavage), 0.2 second, 50 milliampere corneal electroshock, inhibition of extensor tonic convulsions in half of the animals, at time of optimal response; for Time after dosing providing an approximately optimal response: oral gavage, time between dosing and administration of the electroshock
Description: In the electroshock induced convulsion inhibition assay (E.S.), the compound to be tested was suspended in acacia and administered by gavage to each of ten Cox standard strain albino male mice (18-24 g) at the dose level being investigated. Thirty to 180 minutes after compound administration, the mice were subjected to a 0.2 second, 50 milliampere electroshock through corneal electrodes. The animals were examined and evaluated immediately after the electroshock for the occurrence of clonic, flexor tonic, or extensor tonic convulsions, or death and the ED50 was determined for each compound as the dose which inhibited the occurrence of extensor tonic convulsions in one half of the animals immediately after the electroshock. For comparison, 18 milliamperes was usually sufficient to produce extensor tonic convulsions in about half of the control animals; at 50 milliamperes, almost all control animals (receiving vehicle only) died. The test results summarized in Table I are reported as the ED50 values calculated by computer interpolation of fixed doses at the time interval found to provide an optimal response after dosing. For comparison purposes, N-(2,6-dimethylphenyl)-3-pyridinecarboxamide, taught as an intermediate in Example 4 of U.S. Pat. No. 4,361,572, was also evaluated--this compound is referred to in Table I below as Compound A.

[2] = system: seizures; settings: man; cited from earlier work

Structure (SMILES) | ED50 [1] [mg/kg] | Time after dosing providing an approximately optimal response [1] [min] | plasma level that controls seizures [2] [µg/mL]
Cc1ccc(C(=O)Nc2c(C)cccc2Cl)cn1 [Example 3, N-(2-Chloro-6-methylphenyl)-6-methyl-3-pyridinecarboxamide] | 20.2 | 60 | 
O=C1NC(=O)C(c2ccccc2)(c2ccccc2)N1 [phenytoin] |  |  | ≥ 10
Cc1cccc(C)c1NC(=O)c1cccnc1 [Compound A, N-(2,6-dimethylphenyl)-3-pyridinecarboxamide, reference compound] | 24.5 | 30 | 
Cc1ccc(C(=O)Nc2c(C)cccc2C)cn1 [Example 2, N-(2,6-Dimethylphenyl)-6-methyl-3-pyridinecarboxamide] | 6.7 | 60 | 
CNc1ccc(C(=O)Nc2c(C)cccc2C)cn1 [Example 4, 6-(Methylamino)-N-(2,6-dimethylphenyl)-3-pyridinecarboxamide] | 8.7 | 60 | 
Cc1cccc(C)c1NC(=O)c1ccc(Cl)nc1 [Example 1, 6-Chloro-N-(2,6-dimethylphenyl)-3-pyridinecarboxamide] | 31.7 | 30 | 
